Test results reported in PMC3880798 (Clinical cancer research : an official journal of the …, 2013).

Legend:
advanced solid tumors = experiment: Antitumor response; format: in vivo, human
[1] = tested on: pelvic or hepatic lesions; experiment: DCE-MRI functional imaging; format: in vivo, human
[2] = in vivo
c-Kit = settings: intact cellular systems; cited from earlier work
[3] = Phase I dose escalation: safety, tolerability, DLT and MTD
[4] = ovarian cancer patient, 400 mg twice a day
[5] = second ovarian cancer patient, 500 mg twice a day

O=C(Nc1ccc(OC(F)(F)F)cc1)c1sccc1NCc1ccnc2ccccc12 [OSI-930]
Patients with stable disease as best response (advanced solid tumors; once a day cohorts, 50 to 1,600 mg): 4 of 12
Time of confirmed RECIST PR (advanced solid tumors; [4]): 24 weeks
Time of disease progression (advanced solid tumors; [4]): 65 weeks
Time to GCIG CA125 response (advanced solid tumors; [4]): 15 weeks
Median duration of stable disease (advanced solid tumors; patients with GIST): 126 days
Further duration of GCIG CA125 response (advanced solid tumors; [5]): 12 weeks
Time to GCIG CA125 response (advanced solid tumors; [5]): 12 weeks
Patients who achieved stable disease (advanced solid tumors; twice a day cohort): 48%
Decreases of IAUC and AUC from baseline values ([1]; 4 responding patients, 500 mg twice a day): −4% to −78%
Decrease in Ktrans and Ve ([1]; day 22, 4 of 6 patients with non-GIST tumors): > 40%
Cases of grade 2 proteinuria ([2]; human): 1 case
Grade 3 hypertension (number) ([2]; human): 1
Patients requiring a dose modification ([2]; human): 33 patients
Patients who developed grade 1 to 2 PPE ([2]; human): 15%
Patients with adverse events considered related to OSI-930 ([2]; human): 58%
Patients with anorexia (reported adverse events) ([2]; human): 6
Patients with at least 1 grade 3 adverse event of any cause ([2]; human): 50%
Patients with fatigue (reported adverse events) ([2]; human): 8
Patients with grade 1 to 2 drug-related fatigue ([2]; human): 3 patients
Patients with grade 1 to 2 drug-related nausea and anorexia ([2]; human): 2 patients
Patients with grade 3 PPE ([2]; human): 1 patient
Patients with nausea (reported adverse events) ([2]; human): 5
Patients with treatment discontinued for toxicity ([2]; human): 1 patient
Treatment-related adverse events greater than grade 2 ([2]; human): no treatment-related adverse events greater than grade 2
Treatment-related fatigue ([2]; human): 50%
Treatment-related grade 3 fatigue ([2]; human): 6%
Treatment-related grade 3 hypertension ([2]; human): 6%
Treatment-related grade 3 nausea ([2]; human): 6%
Treatment-related grade 3 skin toxicity ([2]; human): 6%
Patients with grade 1 to 2 drug-related skin and subcutaneous disorders ([2]; human, sc): 3 patients
Reports of mucositis [2]: no reports of mucositis
Potency for wild-type versus mutant c-Kit (c-Kit): equal potencies
Treatment-related AEs (number): Abdominal pain, G1–2 ([3]; 1,600 mg once a day (n = 3)): 1
Treatment-related AEs (number): Abdominal pain, G3 ([3]; 1,600 mg once a day (n = 3)): 0
Treatment-related AEs (number): Anorexia, G1–2 ([3]; 1,600 mg once a day (n = 3)): 2
Treatment-related AEs (number): Anorexia, G3 ([3]; 1,600 mg once a day (n = 3)): 0
Treatment-related AEs (number): Diarrhea, G1–2 ([3]; 1,600 mg once a day (n = 3)): 0
Treatment-related AEs (number): Diarrhea, G3 ([3]; 1,600 mg once a day (n = 3)): 0
Treatment-related AEs (number): Dry skin, G1–2 ([3]; 1,600 mg once a day (n = 3)): 0
Treatment-related AEs (number): Dry skin, G3 ([3]; 1,600 mg once a day (n = 3)): 0
Treatment-related AEs (number): Dyspepsia, G1–2 ([3]; 1,600 mg once a day (n = 3)): 0
Treatment-related AEs (number): Dyspepsia, G3 ([3]; 1,600 mg once a day (n = 3)): 0
Treatment-related AEs (number): Fatigue, G1–2 ([3]; 1,600 mg once a day (n = 3)): 1
Treatment-related AEs (number): Fatigue, G3 ([3]; 1,600 mg once a day (n = 3)): 0
Treatment-related AEs (number): Flatulence, G1–2 ([3]; 1,600 mg once a day (n = 3)): 0
Treatment-related AEs (number): Flatulence, G3 ([3]; 1,600 mg once a day (n = 3)): 0
Treatment-related AEs (number): Hair color changes, G1–2 ([3]; 1,600 mg once a day (n = 3)): 0
Treatment-related AEs (number): Hair color changes, G3 ([3]; 1,600 mg once a day (n = 3)): 0
Treatment-related AEs (number): Headache, G1–2 ([3]; 1,600 mg once a day (n = 3)): 0
Treatment-related AEs (number): Headache, G3 ([3]; 1,600 mg once a day (n = 3)): 0
Treatment-related AEs (number): Hypertension, G1–2 ([3]; 1,600 mg once a day (n = 3)): 0
Treatment-related AEs (number): Hypertension, G3 ([3]; 1,600 mg once a day (n = 3)): 0
Treatment-related AEs (number): Muscle spasms, G1–2 ([3]; 1,600 mg once a day (n = 3)): 0
Treatment-related AEs (number): Muscle spasms, G3 ([3]; 1,600 mg once a day (n = 3)): 0
Treatment-related AEs (number): Myalgia, G1–2 ([3]; 1,600 mg once a day (n = 3)): 0
Treatment-related AEs (number): Myalgia, G3 ([3]; 1,600 mg once a day (n = 3)): 0
Treatment-related AEs (number): Nausea, G1–2 ([3]; 1,600 mg once a day (n = 3)): 1
Treatment-related AEs (number): Nausea, G3 ([3]; 1,600 mg once a day (n = 3)): 0
Treatment-related AEs (number): Palmar-plantar erythema, G1–2 ([3]; 1,600 mg once a day (n = 3)): 0
Treatment-related AEs (number): Palmar-plantar erythema, G3 ([3]; 1,600 mg once a day (n = 3)): 0
Treatment-related AEs (number): Vomiting, G1–2 ([3]; 1,600 mg once a day (n = 3)): 0
Treatment-related AEs (number): Vomiting, G3 ([3]; 1,600 mg once a day (n = 3)): 0
DLTs observed ([3]; once a day dosing schedule, 50 to 1,600 mg): no DLTs
Treatment-related deaths ([3]; twice a day cohorts): no treatment-related deaths
